Test results reported in ChEMBL document CHEMBL2069259, “Preclinical strategy to reduce clinical hepatotoxicity using in vitro bioactivation data for >200 compounds” (Chem Res Toxicol, 2012).

Experiments:
[1] = tested on: Liver microsomes; test: Metabolic stability in human liver microsomes assessed as GSH adduct formation at 100 uM after 90 mins by HPLC-MS analysis; details: 1.5 h
[2] = molecular target: CYP2C19 (Homo sapiens, UniProt P33261); test: Inhibition of human CYP2C19 assessed as ratio of IC50 in absence of NADPH to IC50 for presence of NADPH using 3-butyryl-7-methoxycoumarin as substrate after 30 mins
Sequence of CYP2C19 (P33261 whole entry): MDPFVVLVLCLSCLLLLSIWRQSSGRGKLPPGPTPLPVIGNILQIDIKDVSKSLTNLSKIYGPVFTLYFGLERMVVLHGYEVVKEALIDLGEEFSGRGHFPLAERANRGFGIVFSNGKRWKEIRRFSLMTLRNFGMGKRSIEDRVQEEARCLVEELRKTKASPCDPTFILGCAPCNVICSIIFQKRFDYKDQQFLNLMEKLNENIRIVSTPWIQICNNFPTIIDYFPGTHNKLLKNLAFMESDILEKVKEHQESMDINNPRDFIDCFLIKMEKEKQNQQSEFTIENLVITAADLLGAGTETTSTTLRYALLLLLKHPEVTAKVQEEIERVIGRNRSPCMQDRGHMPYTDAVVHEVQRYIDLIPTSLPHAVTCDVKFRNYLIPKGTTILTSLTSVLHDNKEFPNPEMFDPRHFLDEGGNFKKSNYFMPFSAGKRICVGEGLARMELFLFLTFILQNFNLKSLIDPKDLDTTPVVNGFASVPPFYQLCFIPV

[3] = tested on: Liver microsomes; test: Metabolic stability in human liver microsomes assessed as high signal/noise ratio (S/N of >100) by measuring GSH adduct formation at 100 uM after 90 mins by HPLC-MS analysis; details: 1.5 h
[4] = molecular target: T1, CYP3A4 (Homo sapiens, UniProt P08684); test: Inhibition of human CYP3A4 assessed as ratio of IC50 in absence of NADPH to IC50 for presence of NADPH using diethoxyfluorescein as substrate after 30 mins
T1 sequence (P08684 whole entry): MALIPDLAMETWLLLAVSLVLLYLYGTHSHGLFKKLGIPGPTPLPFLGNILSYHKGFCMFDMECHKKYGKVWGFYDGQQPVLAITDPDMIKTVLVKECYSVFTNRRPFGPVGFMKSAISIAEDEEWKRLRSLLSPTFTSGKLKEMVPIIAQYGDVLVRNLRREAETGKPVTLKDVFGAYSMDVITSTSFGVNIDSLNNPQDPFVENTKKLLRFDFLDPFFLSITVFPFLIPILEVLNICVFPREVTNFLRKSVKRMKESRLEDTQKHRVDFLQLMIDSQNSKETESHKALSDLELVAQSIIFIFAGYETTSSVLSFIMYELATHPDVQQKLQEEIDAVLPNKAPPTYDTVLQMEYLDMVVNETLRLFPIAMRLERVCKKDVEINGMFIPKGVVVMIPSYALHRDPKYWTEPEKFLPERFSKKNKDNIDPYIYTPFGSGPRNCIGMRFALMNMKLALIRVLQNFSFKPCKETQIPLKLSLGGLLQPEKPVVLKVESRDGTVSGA

[5] = molecular target: T1, CYP3A4; test: Inhibition of human CYP3A4 assessed as ratio of IC50 in absence of NADPH to IC50 for presence of NADPH using 7-benzyloxyquinoline as substrate after 30 mins
[6] = tested on: Liver microsomes; details: human, 1.5 h, 100 µM
[7] = molecular target: T2, CYP1A2 (Homo sapiens, UniProt P05177); test: Inhibition of human CYP1A2 assessed as ratio of IC50 in absence of NADPH to IC50 for presence of NADPH using ethoxyresorufin as substrate after 30 mins
T2 sequence (P05177 whole entry): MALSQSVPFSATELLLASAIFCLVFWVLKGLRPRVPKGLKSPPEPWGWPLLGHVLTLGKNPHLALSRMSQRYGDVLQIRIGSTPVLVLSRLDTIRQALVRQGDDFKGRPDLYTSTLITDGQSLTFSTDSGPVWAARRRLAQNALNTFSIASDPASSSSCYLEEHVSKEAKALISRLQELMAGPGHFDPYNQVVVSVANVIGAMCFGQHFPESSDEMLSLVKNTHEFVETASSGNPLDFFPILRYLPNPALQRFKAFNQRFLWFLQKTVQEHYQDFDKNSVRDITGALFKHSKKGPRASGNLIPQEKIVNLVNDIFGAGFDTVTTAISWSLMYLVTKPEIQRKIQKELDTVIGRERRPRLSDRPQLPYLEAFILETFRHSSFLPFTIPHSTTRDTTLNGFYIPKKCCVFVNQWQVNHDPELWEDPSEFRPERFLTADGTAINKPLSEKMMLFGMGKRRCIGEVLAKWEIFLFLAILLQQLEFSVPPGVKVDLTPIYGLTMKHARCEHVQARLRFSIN

[8] = molecular target: CYP2D6 (Homo sapiens, UniProt P10635); test: Inhibition of human CYP2D6 assessed as ratio of IC50 in absence of NADPH to IC50 for presence of NADPH using 4-methylaminoethyl-7-methoxycoumarin as substrate after 30 mins
Sequence of CYP2D6 (P10635 whole entry): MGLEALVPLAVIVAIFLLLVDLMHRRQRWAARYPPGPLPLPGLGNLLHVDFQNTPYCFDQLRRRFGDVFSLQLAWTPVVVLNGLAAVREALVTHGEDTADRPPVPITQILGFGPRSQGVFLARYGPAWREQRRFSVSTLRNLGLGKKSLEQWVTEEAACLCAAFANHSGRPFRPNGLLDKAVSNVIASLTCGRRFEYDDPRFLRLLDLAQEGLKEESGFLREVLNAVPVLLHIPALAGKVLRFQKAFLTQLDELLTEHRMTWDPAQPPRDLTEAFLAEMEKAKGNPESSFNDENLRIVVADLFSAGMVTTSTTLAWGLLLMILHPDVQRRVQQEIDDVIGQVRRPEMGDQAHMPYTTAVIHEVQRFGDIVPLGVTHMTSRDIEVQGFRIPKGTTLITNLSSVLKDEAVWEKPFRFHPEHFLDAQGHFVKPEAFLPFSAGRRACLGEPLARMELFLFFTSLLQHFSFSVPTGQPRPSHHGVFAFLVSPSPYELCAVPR

[9] = tested on: Liver microsomes; test: Metabolic stability in human liver microsomes assessed as low signal/noise ratio (S/N of 1 to 10) by measuring GSH adduct formation at 100 uM after 90 mins by HPLC-MS analysis; assay type: ADME, Microsome; details: 1.5 h
[10] = probe 3-butyryl-7-methoxycoumarin

CC(=O)Oc1ccccc1C(=O)O [ASPIRIN]
Stability [1]: Stable | IC50 shift at 0.5 h [2]: < 2

C#C[C@]1(O)CC[C@H]2[C@@H]3CCc4cc(O)ccc4[C@H]3CC[C@@]21C [ETHINYL ESTRADIOL]
Stability [3]: Unstable | IC50 shift at 0.5 h ([4]; probe diethoxyfluorescein): 2 | IC50 shift at 0.5 h ([5]; probe 7-benzyloxyquinoline): 2

O=NN(CCCl)C(=O)NCCCl [CARMUSTINE]
Stability [6]: Unstable

CN(C)C(=O)Oc1ccc[n+](C)c1 [PYRIDOSTIGMINE]
Stability [3]: Unstable | IC50 shift at 0.5 h [2]: 2

CC(c1cc2ccccc2s1)N(O)C(N)=O (stereo unspecified) [ZILEUTON]
IC50 shift at 0.5 h ([7]; probe ethoxyresorufin): > 5 | Stability [1]: Stable

CN(C)CCC=C1c2ccccc2CCc2ccccc21 [AMITRIPTYLINE]
Stability [3]: Unstable | IC50 shift at 0.5 h [2, 10]: < 2

COc1ccc(CN(CCN(C)C)c2ccccn2)cc1 [PYRILAMINE]
Stability [6]: Unstable | IC50 shift at 0.5 h ([8]; probe 4-methylaminoethyl-7-methoxycoumarin): 2

CN1CCN(CCCN2c3ccccc3Sc3ccc(Cl)cc32)CC1 [PROCHLORPERAZINE]
Stability [9]: Unstable

O=C(O)Cc1ccccc1Nc1c(Cl)cccc1Cl [DICLOFENAC]
Stability [6]: Unstable

CC(C(=O)O)c1ccc(N2CC=CC2)c(Cl)c1 (stereo unspecified) [PIRPROFEN]
Stability [6]: Unstable

CCN(CC)CCNc1ccc(CO)c2sc3ccccc3c(=O)c12 [HYCANTHONE]
IC50 shift at 0.5 h [7]: > 5 | Stability [3]: Unstable | IC50 shift at 0.5 h [4]: 2

CC(C)[C@H]1CC[C@H](C(=O)N[C@H](Cc2ccccc2)C(=O)O)CC1 [NATEGLINIDE]
Stability [6]: Unstable

COc1cccc2c1C(=O)c1c(O)c3c(c(O)c1C2=O)C[C@@](O)(C(=O)CO)C[C@@H]3O[C@H]1C[C@H](N)[C@H](O)[C@H](C)O1 [DOXORUBICIN]
IC50 shift at 0.5 h [4]: 2 | Stability [6]: Unstable | IC50 shift at 0.5 h [5]: > 5

CN(CCOc1ccc(NS(C)(=O)=O)cc1)CCc1ccc(NS(C)(=O)=O)cc1 [DOFETILIDE]
Stability [6]: Unstable

O=C1CCc2cc(OCCCCc3nnnn3C3CCCCC3)ccc2N1 [CILOSTAZOL]
IC50 shift at 0.5 h [4]: 2 | Stability [1]: Stable | IC50 shift at 0.5 h [5]: 2

NNC(=O)c1ccncc1 [ISONIAZID]
IC50 shift at 0.5 h [4]: > 5 | Stability [1]: Stable | IC50 shift at 0.5 h [8]: > 5 | IC50 shift at 0.5 h [5]: > 5 | IC50 shift at 0.5 h [2]: > 5

CC1=C(CC(=O)O)c2cc(F)ccc2/C1=C\c1ccc([S+](C)[O-])cc1 (stereo unspecified)
Stability [6]: Unstable

Cc1cccc(C)c1NC(=O)C1CCCCN1C (stereo unspecified) [MEPIVACAINE]
IC50 shift at 0.5 h ([4]; probe diethoxyfluorescein): 2 | Stability [1]: Stable | IC50 shift at 0.5 h ([5]; probe 7-benzyloxyquinoline): 2

COc1ccccc1OCC(O)COC(N)=O (stereo unspecified) [METHOCARBAMOL]
Stability [1]: Stable | IC50 shift at 0.5 h [2, 10]: < 2

CS(=O)(=O)Nc1ccc([N+](=O)[O-])cc1Oc1ccccc1 [NIMESULIDE]
Stability [9]: Unstable | IC50 shift at 0.5 h [4]: 2 | IC50 shift at 0.5 h [5]: < 2

C[C@H]1[C@H](c2ccccc2)OCCN1C [PHENDIMETRAZINE]
Stability [9]: Unstable

C#C[C@]1(O)CC[C@H]2[C@@H]3CCC4=Cc5oncc5C[C@]4(C)[C@H]3CC[C@@]21C [DANAZOL]
Stability [6]: Unstable | IC50 shift at 0.5 h [2]: < 2

C[C@](N)(Cc1ccc(O)c(O)c1)C(=O)O [METHYLDOPA]
Stability [9]: Unstable

Nc1ccc(S(=O)(=O)c2ccc(N)cc2)cc1 [DAPSONE]
Stability [9]: Unstable

CNC1(C)C2CCC(C2)C1(C)C (stereo unspecified) [MECAMYLAMINE]
Stability [1]: Stable | IC50 shift at 0.5 h [2]: < 2

CC(=O)N1CCN(c2ccc(OCC3COC(Cn4ccnc4)(c4ccc(Cl)cc4Cl)O3)cc2)CC1 (stereo unspecified) [KETOCONAZOLE]
Stability [9]: Unstable

CN1C(C(=O)Nc2ccccn2)=C(O)c2ccccc2S1(=O)=O [PIROXICAM]
Stability [9]: Unstable
